Results on five molecules are retold here after ChEMBL document CHEMBL1134403, “Structure-based approach for the discovery of bis-benzamidines as novel inhibitors of matriptase” (J Med Chem, 2001).

One experiment addresses Prothrombin (Homo sapiens, UniProt P00734). Description: compound was tested for inhibitory activity against Thrombin.
Experiment [1] deals with T1, Suppressor of tumorigenicity 14 protein (Homo sapiens, UniProt Q9Y5Y6).
T1 sequence (Q9Y5Y6 whole entry): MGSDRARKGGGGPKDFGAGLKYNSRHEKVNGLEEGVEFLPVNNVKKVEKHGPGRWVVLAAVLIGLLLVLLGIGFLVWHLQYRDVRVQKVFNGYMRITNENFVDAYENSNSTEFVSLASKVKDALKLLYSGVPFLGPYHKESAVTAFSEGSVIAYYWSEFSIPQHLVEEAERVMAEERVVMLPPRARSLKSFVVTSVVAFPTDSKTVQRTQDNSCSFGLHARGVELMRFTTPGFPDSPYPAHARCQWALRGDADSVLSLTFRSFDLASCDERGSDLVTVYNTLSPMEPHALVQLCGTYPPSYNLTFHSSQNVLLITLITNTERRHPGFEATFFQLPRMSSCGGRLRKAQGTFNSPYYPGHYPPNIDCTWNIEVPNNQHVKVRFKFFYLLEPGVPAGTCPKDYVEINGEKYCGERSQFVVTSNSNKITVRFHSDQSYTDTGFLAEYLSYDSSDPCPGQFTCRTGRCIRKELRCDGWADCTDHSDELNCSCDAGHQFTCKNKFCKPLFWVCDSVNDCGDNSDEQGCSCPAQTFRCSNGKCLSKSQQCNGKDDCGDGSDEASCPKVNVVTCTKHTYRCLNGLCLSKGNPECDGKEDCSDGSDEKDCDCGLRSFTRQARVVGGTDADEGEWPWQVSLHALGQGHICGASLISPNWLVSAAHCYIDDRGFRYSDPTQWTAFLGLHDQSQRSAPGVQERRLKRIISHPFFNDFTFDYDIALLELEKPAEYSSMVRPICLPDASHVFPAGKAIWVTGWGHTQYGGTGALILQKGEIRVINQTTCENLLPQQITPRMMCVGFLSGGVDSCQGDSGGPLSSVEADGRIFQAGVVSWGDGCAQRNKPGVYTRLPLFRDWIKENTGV
Description: compound was tested for inhibitory activity against Matriptase.

A word on the Ki: it is a measure of affinity in units of concentration, obtained from inhibition or displacement. With `N=C(N)c1ccc(OCCCCCCOc2ccc(C(=N)N)cc2)cc1` [HEXAMIDINE], the Ki on Prothrombin amounted to 224 nM. Regarding `N=C(N)c1ccc(CCc2ccc(C(=N)N)cc2)cc1`, in experiment [1], the Ki was over 10000 nM. `N=C(N)c1ccc(OCCCOc2ccc(C(=N)N)cc2Br)c(Br)c1` [DIBROMPROPAMIDINE] had a Ki on Prothrombin of 946 nM.

Turning to `N=C(N)c1ccc(Oc2ccc(Oc3ccc(C(=N)N)cc3)cc2)cc1`, the Ki at Prothrombin worked out at 2670 nM. Regarding `N=C(N)c1ccc(OCCCCCCOc2ccc(C(=N)N)cc2I)cc1`, the Ki on Prothrombin was determined as 796 nM.
